Results as given in patent US10806142B2, “2-amino-5-ketoxime-pyrimidine derivatives and their use for controlling undesired plant growth” (Bayer CropScience Aktiengesellschaft, priority 2015, dated 2020).

Tests used:
[1] = test system: Polygpnum convolvulus; test: Post-emergence herbicidal effect; type: in vivo
Method: (§1) [table] 2. Post-Emergence Herbicidal Effect and Crop Plant Compatibility Seeds of monocotyledonous and dicotyledonous weed and crop plants are laid out in sandy loam in wood-fiber pots, covered with soil and cultivated in a greenhouse under good growth conditions. 2 to 3 weeks after sowing, the test plants are treated at the one-leaf stage. The compounds of the invention, formulated in the form of wettable powders (WP) or as emulsion concentrates (EC), are then sprayed onto the green parts of the plants as aqueous suspension or emulsion at a water application rate equating to 600 to 800 L/ha with addition of 0.2% wetting agent. After the trial plants have been left to stand in a greenhouse under optimal growth conditions for about 3 weeks, the efficacy of the formulations is scored visually in comparison to untreated controls (herbicidal action in percent (%): 100% efficacy=the plants have died, 0% efficacy=like control plants).

[2] = test system: Viola tricolor; test: Post-emergence herbicidal effect; type: in vivo
Method: as §1

[3] = test system: Abutilon theophrasti; test: Post-emergence herbicidal effect; type: in vivo; details: visual score after about 3 weeks
Method: as §1

[4] = test system: Stellaria media; test: Post-emergence herbicidal effect; type: in vivo; details: visual score after about 3 weeks
Method: as §1

[5] = logp (HCOOH), physicochemical characterization; details: HCOOH (formic acid)
[6] = test system: Amaranthus retroflexus; test: Pre-emergence herbicidal effect; type: in vivo
Description: (§2) 1. Pre-Emergence Herbicidal Effect and Crop Plant Compatibility Seeds of monocotyledonous and dicotyledonous weed plants and crop plants are laid out in wood-fiber pots in sandy loam and covered with soil. The compounds of the invention, formulated in the form of wettable powders (WP) or as emulsion concentrates (EC), are then applied to the surface of the covering soil as aqueous suspension or emulsion at a water application rate equating to 600 to 800 L/ha with addition of 0.2% wetting agent. After the treatment, the pots are placed in a greenhouse and kept under good growth conditions for the trial plants. The damage to the trial plants is scored visually after a trial duration of 3 weeks by comparison with untreated controls (herbicidal activity in percent (%): 100% efficacy=the plants have died, 0% efficacy=like control plants). [table]

[7] = test system: Matricaria inodora; test: Pre-emergence herbicidal effect; type: in vivo
Description: as §2

[8] = test system: Setaria viridis; test: Pre-emergence herbicidal effect; type: in vivo; details: dosage 320 g a.i./ha
Description: as §2

[9] = test system: Viola tricolor; test: Pre-emergence herbicidal effect; type: in vivo
Description: as §2

[10] = test system: Stellaria media; test: Pre-emergence herbicidal effect; type: in vivo
Description: as §2

[11] = test system: Echinochloa crus-galli; test: Pre-emergence herbicidal effect; type: in vivo; details: dosage 320 g a.i./ha
Description: as §2

[12] = test system: Veronica persica; test: Pre-emergence herbicidal effect; type: in vivo
Description: as §2

[13] = test system: Polygpnum convolvulus; test: Pre-emergence herbicidal effect; type: in vivo; details: dosage 320 g a.i./ha
Description: as §2

[14] = test system: Ipomoea purpurea; test: Post-emergence herbicidal effect; type: in vivo
Method: as §1

[15] = test system: Matricaria inodora; test: Post-emergence herbicidal effect; type: in vivo; details: dosage 320 g a.i./ha, visual score after about 3 weeks
Method: as §1

[16] = test system: Setaria viridis; test: Post-emergence herbicidal effect; type: in vivo; details: dosage cell empty
Method: as §1

[17] = dosage 80 g a.i./ha, visual score after about 3 weeks
[18] = dosage 320 g a.i./ha, visual score after about 3 weeks
[19] = dosage cell empty, first line of the compound

| Compound | Herbicidal activity against POLCO [1, 17] [%] | Herbicidal activity against POLCO [1, 18] [%] | Herbicidal activity against VIOTR [2, 17] [%] | Herbicidal activity against VIOTR [2, 18] [%] | Herbicidal activity against ABUTH ([3]; dosage 320 g a.i./ha) [%] | Herbicidal activity against STEME ([4]; dosage 80 g a.i./ha) [%] | Herbicidal activity against STEME ([4]; dosage 320 g a.i./ha) [%] | chromatographic logP [5] | Herbicidal activity against AMARE ([6]; dosage 320 g a.i./ha) [%] | Herbicidal activity against MATIN ([7]; dosage 320 g a.i./ha) [%] | Herbicidal activity against SETVI [8] [%] | Herbicidal activity against VIOTR ([9]; dosage 80 g a.i./ha) [%] | Herbicidal activity against VIOTR ([9]; dosage 320 g a.i./ha) [%] | Herbicidal activity against STEME ([10]; dosage 80 g a.i./ha) [%] | Herbicidal activity against STEME ([10]; dosage 320 g a.i./ha) [%] | Herbicidal activity against ECHCG [11] [%] | Herbicidal activity against VERPE ([12]; dosage 80 g a.i./ha) [%] | Herbicidal activity against VERPE ([12]; dosage 320 g a.i./ha) [%] | Herbicidal activity against POLCO [13] [%] | also measured |
| --- | --- | --- | --- | --- | --- | --- | --- | --- | --- | --- | --- | --- | --- | --- | --- | --- | --- | --- | --- | --- |
| CCCC/C(=N\O)c1cnc(N[C@H]2c3cc(C)ccc3C[C@@H]2C)nc1 [Compound 1.85a, N-[(1R,2S)-2,6-Dimethyl-2,3-dihydro-1H-inden-1-yl]-5-[(1E)-N-hydroxypentanimidoyl]pyrimidine-2-amine] | 80 | 80 | 80 | 90 | 100 | 80 | 90 | 3.86 | 80 | 100 | 100 | 100 | 100 | 100 | 100 | 100 | 100 | 100 | – | Herbicidal activity against ABUTH ([3]; dosage 80 g a.i./ha): 80% |
| CCCC/C(=N/O)c1cnc(N[C@H]2c3cc(C)ccc3C[C@@H]2C)nc1 [Compound 1.85b, N-[(1R,2S)-2,6-dimethyl-2,3-dihydro-1H-inden-1-yl]-5-[(1Z)-N-hydroxypentanimidoyl]pyrimidine-2-amine] | – | – | – | – | – | – | – | 4.1 | 80 | 80 | – | 100 | 100 | 100 | 100 | – | 100 | 100 | 90 | – |
| CCO/N=C(\C)c1cnc(N[C@H]2c3cc(C)ccc3C[C@@H]2C)nc1 [Compound 1.103a, N-[(1R,2S)-2,6-Dimethyl-2,3-dihydro-1H-inden-1-yl]-5-[(1E)-N-ethoxyethanimidoyl]pyrimidine-2-amine] | 90 | 100 | 90 | 90 | 90 | 90 | 90 | – | 100 | 100 | 100 | 100 | 100 | 100 | 100 | 100 | – | – | 100 | Herbicidal activity against PHBPU [14, 17]: 80%; Herbicidal activity against PHBPU [14, 18]: 90%; Herbicidal activity against MATIN [15]: 80%; Herbicidal activity against AMARE ([6]; dosage 80 g a.i./ha): 100%; Herbicidal activity against MATIN ([7]; dosage 80 g a.i./ha): 90% |
| CC/C(=N/OCc1ccc(Cl)cc1)c1cnc(N[C@H]2c3cc(C)ccc3C[C@@H]2C)nc1CC [Compound 1.115b, 5-{(1Z)-N-[(4-Chlorobenzyl)oxy]propanimidoyl}-N-[(1R,2S)-2,6-dimethyl-2,3-dihydro-1H-inden-1-yl]-4-ethylpyrimidine-2-amine] | – | – | – | – | – | – | – | – | – | 90 | – | 90 | 100 | – | 100 | – | 100 | 100 | – | Herbicidal activity against PHBPU [14, 19]: 90%; Herbicidal activity against POLCO [1, 19]: 80%; Herbicidal activity against SETVI ([16]; first line of the compound): 100%; Herbicidal activity against SETVI ([16]; second line of the compound): 80%; Herbicidal activity against VIOTR [2, 19]: 90%; Herbicidal activity against VIOTR ([2]; dosage cell empty, second line of the compound): 80% |
